In ChEMBL document CHEMBL1201862, “PubChem BioAssay data set” (2004):
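Assay format: 96-well plates, 48-hour exposure. GI50 is the concentration that inhibits growth by half.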 The source made the active and inactive calls. Rule as the data show it: active = GI50 up to about 1.1 µM and inactive = higher.

Legend:
Experiment in all cases: DTP human tumour cell line panel, 48 h
SK-MEL-5 = system: SK-MEL-5
RPMI-8226 = system: RPMI-8226
SNB-75 = system: SNB-75
UO-31 = system: UO-31
A549 = system: A549
NCI-H522 = system: NCI-H522
UACC-257 = system: UACC-257
KM12 = system: KM12
HT-29 = system: HT-29
SK-MEL-28 = system: SK-MEL-28
786-0 = system: 786-0
IGROV-1 = system: IGROV-1
ACHN = system: ACHN
CAKI-1 = system: CAKI-1
SK-OV-3 = system: SK-OV-3
SK-MEL-2 = system: SK-MEL-2
MOLT-4 = system: MOLT-4
Hs-578T = system: Hs-578T
MDA-MB-231 = system: MDA-MB-231
BT-549 = system: BT-549

Measured: GI50

COC(=O)c1cc(O)ccc1O [METHYL 2,5-DIHYDROXYBENZOATE]
inactive: SK-MEL-5 > 100 µM | RPMI-8226 > 100 µM | SNB-75 > 100 µM | UO-31 > 100 µM | A549 > 100 µM | NCI-H522 93.1 µM | UACC-257 > 100 µM | KM12 > 100 µM | HT-29 > 100 µM | SK-MEL-28 > 100 µM | 786-0 > 100 µM | IGROV-1 > 100 µM | ACHN > 100 µM | CAKI-1 > 100 µM | SK-OV-3 > 100 µM | SK-MEL-2 > 100 µM | MOLT-4 > 100 µM

CCCCCCCCCCCC[N+]12CC[N+](CCN)(CC1)CC2
inactive: SK-MEL-5 > 100 µM | RPMI-8226 28.2 µM | SNB-75 28.2 µM | UO-31 > 100 µM | A549 > 100 µM | NCI-H522 86.5 µM | UACC-257 > 100 µM | KM12 23.7 µM | HT-29 67.8 µM | SK-MEL-28 > 100 µM | 786-0 > 100 µM | IGROV-1 10.8 µM | ACHN > 100 µM | CAKI-1 19.2 µM | SK-OV-3 > 100 µM | SK-MEL-2 > 100 µM | MOLT-4 > 100 µM

CN(C)N1C(=O)SCC(c2ccccc2)(c2ccccc2)C1=O
inactive: SK-MEL-5 > 100 µM | RPMI-8226 78 µM | SNB-75 60.1 µM | UO-31 > 100 µM | A549 68.2 µM | NCI-H522 84.5 µM | UACC-257 > 100 µM | KM12 > 100 µM | HT-29 > 100 µM | Hs-578T > 100 µM | SK-MEL-28 > 100 µM | 786-0 > 100 µM | ACHN > 100 µM | MDA-MB-231 > 100 µM | CAKI-1 > 100 µM | SK-OV-3 > 100 µM | SK-MEL-2 63.4 µM | MOLT-4 > 100 µM

C=C[C@@H]1OC(=O)O[C@H]1CO
inactive: SK-MEL-5 > 100 µM | RPMI-8226 > 100 µM | SNB-75 > 100 µM | UO-31 > 100 µM | A549 > 100 µM | UACC-257 > 100 µM | KM12 > 100 µM | HT-29 > 100 µM | Hs-578T > 100 µM | SK-MEL-28 > 100 µM | 786-0 > 100 µM | IGROV-1 > 100 µM | ACHN > 100 µM | MDA-MB-231 > 100 µM | SK-OV-3 > 100 µM | SK-MEL-2 > 100 µM | MOLT-4 > 100 µM

COc1ccc(CNc2nc3cc(C(F)(F)F)ccc3nc2C(=O)O)cc1OC
inactive: SK-MEL-5 20.8 µM | RPMI-8226 28.1 µM | SNB-75 47.9 µM | UO-31 28.3 µM | A549 35.6 µM | UACC-257 34.2 µM | KM12 32.1 µM | HT-29 35.6 µM | SK-MEL-28 67 µM | 786-0 32.9 µM | BT-549 41.2 µM | IGROV-1 12.2 µM | ACHN 26.1 µM | MDA-MB-231 32.5 µM | CAKI-1 28.6 µM | SK-OV-3 29.7 µM | SK-MEL-2 23.2 µM | MOLT-4 22.8 µM

O=c1[nH]n(Cc2ccccc2Cl)c2ccccc12
inactive: SK-MEL-5 > 100 µM | RPMI-8226 > 100 µM | SNB-75 45.5 µM | UO-31 > 100 µM | A549 > 100 µM | NCI-H522 > 100 µM | UACC-257 38.9 µM | KM12 > 100 µM | HT-29 > 100 µM | Hs-578T > 100 µM | SK-MEL-28 > 100 µM | 786-0 > 100 µM | IGROV-1 > 100 µM | ACHN > 100 µM | MDA-MB-231 > 100 µM | CAKI-1 > 100 µM | SK-MEL-2 > 100 µM | MOLT-4 > 100 µM

CN1CCC2(CC1)/C(=N/C1CCCCC1)NC(=O)N2c1ccccc1
inactive: SK-MEL-5 > 100 µM | RPMI-8226 > 100 µM | SNB-75 > 100 µM | UO-31 > 100 µM | A549 > 100 µM | UACC-257 > 100 µM | KM12 > 100 µM | HT-29 > 100 µM | Hs-578T > 100 µM | SK-MEL-28 > 100 µM | 786-0 > 100 µM | IGROV-1 > 100 µM | ACHN > 100 µM | MDA-MB-231 > 100 µM | SK-OV-3 > 100 µM | MOLT-4 > 100 µM

CC(C)c1ccccc1SC1CC(=O)CC(Sc2ccccc2C(C)C)C12O[C@H](c1ccccc1)[C@@H](c1ccccc1)O2 (some centres not stated)
inactive: SK-MEL-5 35.6 µM | RPMI-8226 17.3 µM | A549 > 100 µM | UACC-257 > 100 µM | KM12 59.6 µM | HT-29 58.5 µM | SK-MEL-28 38.5 µM | 786-0 18.1 µM | BT-549 51.1 µM | IGROV-1 34.1 µM | ACHN 30.3 µM | MDA-MB-231 34.8 µM | CAKI-1 26.3 µM | SK-OV-3 > 100 µM | SK-MEL-2 35.6 µM | MOLT-4 23.4 µM
